Source: US20250041294A1, “Synergistic compositions for use in the treatment of cancer” (Sartar Therapeutics Oy, priority 2021, published 2025)

Experiments:
Assay type in all cases: cell-based
[1] = tested on: GIST882, SA4, and GOT3 cell lines; experiment: Drug combination testing with concentration matrices, SynergyFinder 2.0 (all three cell lines); settings: drug concentration matrices and SynergyFinder 2.0, with or without Anagrelide
Method: (§1) Drug combination testing with anagrelide and 12 selected drugs was performed as described above but with selected drugs using drug concentration matrices covering seven different concentrations with 3 replicate sample of each combinations and in two replicate assays. Synergy was assessed using an R package SynergyFinder 2.0 (Ianevski A, et al. 2020). The tool implements synergy scoring with four major reference models: HSA, Loewe, Bliss and ZIP models. The degree of a drug combination effect can be readily visualized as a synergy landscape map over the dose matrix and ZIP synergy score.

[2] = tested on: GIST882 cell line; experiment: Drug combination testing with concentration matrices, SynergyFinder 2.0; settings: combination with anagrelide, seven-concentration matrices
Method: as §1, with “Synergy was assessed using an R package SynergyFinder 2.0 (Ianevski A, et al. 2020).” left out

[3] = tested on: SA4 cell line; experiment: as above; settings: combination with anagrelide, seven-concentration matrices
Method: as §1, with “Synergy was assessed using an R package SynergyFinder 2.0 (Ianevski A, et al. 2020).” left out

[4] = tested on: GOT3 cell line; experiment: as above; settings: combination with anagrelide, seven-concentration matrices
Method: as §1, with “Synergy was assessed using an R package SynergyFinder 2.0 (Ianevski A, et al. 2020).” left out

[5] = tested on: GIST882, SA4 and GOT3 cell lines; experiment: Cell viability assay (96 well, CellTiter-Glo, 72 hours); settings: for synergy with DNMDP (in words): FIGS. 7-8
Method: Cell viability assay. Cells were plated on 96 Well White/Clear Tissue Culture Treated Plate (FALCON, 353377) 24 hours prior to medium change with drugs. Viabilities of cells in different treatments were evaluated 72 hours after treatment incubation with CellTiter-Glo® Luminescent Cell Viability Assay (G7572, Promega) following manufacturer's instruction. Reagent and cells stabilized to room temperature. Reagent added 100 μl/well, shaken for 2 minutes at room temperature and incubated for 10 min at room temperature before measuring the luminescence by using Hidex Sence microplate reader (Hidex oy). Growth medium was used to exclude background signal from the results.

[6] = tested on: GIST882, GOT3 and SA4 cell lines; experiment: High throughput drug sensitivity and resistance test, average over cell lines (BAY2666605 combination); settings: for Average DSS (aDSS): BAY2666605 combination, average of GIST882, SA4 and GOT3, aDSS higher than 3.0 = synergy; for synergy in high-throughput screening (in words): with anagrelide (GOT3, SA4) or BAY2666605 (GIST882, GOT3, SA4)
Procedure, shortened: (§2)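 Compounds were plated in 10-fold dilutions spanning a 10,000-fold range, alone or with anagrelide (100 nM; SA4, GOT3) or BAY2666605 (40 nM; GIST882, SA4, GOT3). Viability was read by CellTiter-Glo after 72 h and normalized to DMSO and benzethonium chloride controls. Responses were expressed as DSS from four-parameter fits, and the single-agent DSS was subtracted from the combination DSS.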

[7] = tested on: GOT3 and SA4 cell lines; experiment: High throughput drug sensitivity and resistance test, average over cell lines (anagrelide combination); settings: anagrelide combination, average of SA4 and GOT3; aDSS higher than 3.0 = synergy
Procedure, shortened: as §2

[8] = tested on: GIST882 cell line; experiment: High throughput drug sensitivity and resistance test (CellTiter-Glo, 72 hours); settings: drug combined with BAY2666605 (40 nM) minus drug alone
Procedure, shortened: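 GIST882 viability read by CellTiter-Glo after 72 h, normalized to 0.01% DMSO and 100 μmol/L benzethonium chloride. Compounds also combined with 40 nM BAY2666605. Four-parameter logistic curves; response as drug sensitivity score, with synergy as combination DSS minus single-agent DSS.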

[9] = tested on: SA4 cell line; experiment: as above; settings: SA4; for SA4 cell line: DSS(combo (BAY2666605))-DSS(drug): drug combined with BAY2666605 (40 nM) minus drug alone; for SA4 cell line: DSS(combo (anagrelide))-DSS(drug): drug combined with anagrelide hydrochloride (100 nM) minus drug alone
Procedure, shortened: as §2

[10] = tested on: GOT3 cell line; experiment: as above; settings: GOT3; for GOT3 cell line: DSS(combo (BAY2666605))-DSS(drug): drug combined with BAY2666605 (40 nM) minus drug alone; for GOT3 cell line: DSS(combo (anagrelide))-DSS(drug): drug combined with anagrelide hydrochloride (100 nM) minus drug alone
Procedure, shortened: as §2

[11] = treated together with 3-hydroxy-anagrelide, FIGS. 5 and 6
[12] = treated together with Anagrelide, FIGS. 3 and 4

| SMILES | efficacy in cell lines (in words) [1] | Average ZIP synergy score [2] | Average ZIP synergy score [3] | Average ZIP synergy score [4] | synergy with DNMDP (in words) [5] | cell viability, combination result (in words) [5, 11] | cell viability, combination result (in words) [5, 12] | Average DSS (aDSS) [6] | synergy in high-throughput screening (in words) [6] | Average DSS (aDSS) [7] | GIST882 cell line: DSS(combo (BAY2666605))-DSS(drug) [8] | SA4 cell line: DSS(combo (BAY2666605))-DSS(drug) [9] | SA4 cell line: DSS(combo (anagrelide))-DSS(drug) [9] | GOT3 cell line: DSS(combo (BAY2666605))-DSS(drug) [10] | GOT3 cell line: DSS(combo (anagrelide))-DSS(drug) [10] |
| --- | --- | --- | --- | --- | --- | --- | --- | --- | --- | --- | --- | --- | --- | --- | --- |
| CN(C)CC#Cc1ccc(OCCCc2sc(N3CCc4cccc(C(=O)Nc5nc6ccccc6s5)c4C3)nc2C(=O)O)c(F)c1 [A-1155463] | significant efficacy in cell lines only when they were administered with Anagrelide | 15.5 | 11.1 | 12.7 | showed synergy with DNMDP | verified the result | verified the result | 8.8 | synergistic | 14.85 | 23 | −3.6 | 22.2 | 6.9 | 7.5 |
| Cc1c(-c2ccc(N3CCc4cccc(C(=O)Nc5nc6ccccc6s5)c4C3)nc2C(=O)O)cnn1CC12CC3CC(CC(C3)C1)C2 [A-1331852] | significant efficacy in cell lines only when they were administered with Anagrelide | 9.6 | 11.1 | 11.6 | – | – | – | 10.2 | synergistic | 9.25 | 15.1 | 12.6 | 14.9 | 2.8 | 3.6 |
| CC1(C)CCC(c2ccc(Cl)cc2)=C(CN2CCN(c3ccc(C(=O)NS(=O)(=O)c4ccc(N[C@H](CCN5CCOCC5)CSc5ccccc5)c(S(=O)(=O)C(F)(F)F)c4)cc3)CC2)C1 [Navitoclax, navitoclax] | significant efficacy in cell lines only when they were administered with Anagrelide | 11.7 | 8 | 2.4 | showed synergy with DNMDP | verified the result | verified the result | 17.0 | synergistic | 10 | 20.7 | 28.5 | 17.4 | 1.7 | 2.6 |
